Assay results reported in patent publication US12350247B2, “Use of APE1/Ref-1 inhibitors for treatment of retinal diseases” (Indiana University Research and Technology Corporation, priority 2017, dated 2025).
Like-named read-outs stand apart in the source and are kept apart here.

How the values were obtained:
[1] = test system: patient-derived Pa03C tumors with CAFs; assay: Flank co-culture model of PDAC, APX3330 and Ruxolitinib; type: in vivo, mice
Description: Treatment of the implanted tumors started on day 11 post implant. Particularly, the co-cultures implanted included 2.5×10^6 tumor cells +/−5 ×10^6 CAFs, providing a 1:2 ratio of tumor cell to CAF. […] The mice were then administered either 50 mg/kg APX3330 BID in 4% Cr:EtOH, 50 mg/kg Rux SID pm in 4% Cr:EtOH, or combinations of the agents. Treatment schedule consisted of treating for 5 days and then giving 2 days off treatment until the tumors reached an average size of 2000 mm^3.

[2] = test system: human adenocarcinoma colon suspension cell line Colo-201; assay: Alamar blue cytotoxicity combination assay (CalcuSyn); type: cell-based
Description: Colo-201 (Yunhua Liu) was seeded in a 96-well tissue culture plate at 2000 cells/well in RPMI+Sodium Pyruvate+10% FBS and grown overnight at 37° C., 5% CO2. 2× Drug Media RPMI+Sodium Pyruvate+5% FBS was added at dosages of APX3330 (Apexian) in a 5-point spread from 75 uM to 6.3 uM and spiked with CPI-613 (Apexbio Technology) at 75 uM, or 50 uM, or alone for single agent. Cells were incubated 72 hours at 37° C., 5% CO2 and then 10% Alamar blue fluorescent cell viability indicator (INVITROGEN™) was added directly to plate. Indicator was incubated 4 hours at 37° C., 5% CO2, and then read on a fluorescent reader (SYNERGY™ H4 BioTek). […] FIG. 31D depicts Chou-Talalay Index (CI) of dose combinations (CalcuSyn). FIG. 31E depicts synergistic drug combinations (CalcuSyn) of APX3330 spiked with 50 uM CPI-613 or 75 uM CPI-613. […] Data shown is the average of 3 separate cytotoxicity assays; each assay normalized to media only control.

10.05 cells = assay: Intracellular pH assay (pHrodo Red AM) in hypoxic 10.05 cells; type: cell-based, human; conditions: 0.2% O2 48 hrs; up to 50 μM APX3330, 100 μM SLC-0111; 8 APX2009, 5 μM APX2014
Description: Therefore, the APX3330 analogs, APX2009 and APX2014, were used to determine whether APE1/Ref-1 redox inhibition alone can shift intracellular pH in hypoxic PDAC cells given a sufficiently potent inhibitor.

pancreatic tumor = assay: Xenograft model, APX3330 with gemcitabine; type: in vivo; conditions: APX3330 (25 mg/kg) combined with gemcitabine (35 mg/kg)
Description: The data in FIG. 14C is tumor volume at sacrifice. Combination therapy was well-tolerated.

murine KPC cells = assay: Alamar blue proliferation-based assay; type: cell-based; conditions: 3 days incubation
CAFs (CAF19 cells) = assay: 3D spheroid co-culture, CAF signal (green channel); conditions: for CC50: read-out: LC50, 3D Cultures, CAFs
Panc10.05 = assay: 3D tumor spheroid culture growth (fluorescence intensity); conditions: read-out: LC50; 3D Cultures, Tumor Alone, Panc10.05, D12 curves
Pa03C = assay: as above
[3] = test system: Pa03C and Panc10.05 tumor cells; assay: 3D spheroid / co-culture model of pancreatic cancer (both patient lines)
Description: Pa03C cells were plated into 3D cultures alone or with CAF19 cells.
Pa03C and Panc10.05 tumor cells were grown in 3D cultures in the presence of CAFs. Spheroids were treated with either single agents, vehicle (DMSO) or combination of targeted agents on days 4 and 8 (black arrows), and the intensity of tumor (red) and CAF (green) were quantified as described in Example 7 every 3-4 days in culture.

## CCCCCCCCC/C(=C\C1=C(C)C(=O)C(OC)=C(OC)C1=O)C(=O)O [APX3330]
[1]; Ruxolitinib (Rux) in combination with APX3330
  tumor volume: reduction in tumor volume
[1]; combination therapy: 50 mg/kg APX3330 BID with 50 mg/kg Rux SID, day 31
  average tumor size: 1200 mm^3
[1]; treatment alone, 50 mg/kg, day 28
  average tumor size: 1750 mm³
[2]; APX3330 75 uM and 50 uM spiked with 50 uM CPI-613, 72 hours
  drug combination synergy (Chou-Talalay, CalcuSyn): synergy was observed
[2]; all but one APX3330 dosage (6.3 uM), spiked with 75 uM CPI-613, 72 hours
  drug combination synergy (Chou-Talalay, CalcuSyn): Synergy was observed
10.05 cells
  effect on intracellular pH as single agent: did not affect
Pancreatic tumor
  tolerability of combination therapy: well-tolerated
  tumor volume at sacrifice vs single agents alone: significantly decreased tumor volume
Murine KPC cells
  cytotoxicity in combination with Napabucasin: enhancement of Napa-induced cytotoxicity
CAFs (CAF19 cells); APX3330 alone, co-culture with Pa03C
  area of the CAFs: reduction in the area of the CAFs
CAFs (CAF19 cells); co-culture with Pa03C, D12 curves
  CC50: 57.3 µM
CAFs (CAF19 cells); co-culture with Panc10.05, D12 curves
  CC50: 59.4 µM
Panc10.05
  CC50: 44.5 µM
Pa03C; Pa03C in co-culture with CAFs, APX3330 50 μM
  effect of gemcitabine with APX3330 on tumor: dose-dependent combination effect
Pa03C; read-out: LC50, 3D Cultures, Tumor Alone, Pa03C, D12 curves
  CC50: 37.9 µM
[3]; 3D co-cultures with CAFs, APX3330 at 50 μM, APX2009 at 10 μM, APX2014 at 0.6 μM
  tumor cell growth in combination with SLC-0111: significantly attenuated tumor cell growth
[3]; 3D spheroid model (tumor and CAF)
  tumor killing in combination with napabucasin: synergistic tumor killing effect
[3]; treated on days 4 and 8, FIG. 17
  single agent efficacy on 3D spheroid growth: reduced cell growth, cell proliferation
